Test results from patent publication US4264498A, “Process for the preparation of 1,3-disubstituted-2-azetidinones from triazines” (Fujisawa Pharmaceutical Co., Ltd., priority 1976, dated 1981).
Converted amounts (≈) assume the structure as drawn.

How the values were obtained:
Assay type in all cases: cell-based
Bacillus subtilis = experiment: antimicrobial activity (MIC) against Bacillus subtilis
Pseudomonas aeruginosa = experiment: antimicrobial activity (MIC) against Pseudomonas aeruginosa
Staphylococcus aureus = experiment: antimicrobial activity (MIC) against Staphylococcus aureus

Row | Compound | MIC (Pseudomonas aeruginosa) [µg/mL] | MIC (Staphylococcus aureus) [µg/mL] | other results
1 | O=C(O)CN1CC(NC(=O)Cc2ccccc2)C1=O (centres unmarked) [Compound A, 2-(3-phenylacetamido-2-oxo-1-azetidinyl)acetic acid] |  |  | MIC (Bacillus subtilis): 250 µg/mL (≈ 953 µM)
2 | NC(CCOc1ccc(C(=NO)C(=O)NC2CN(C(C(=O)O)c3cccs3)C2=O)cc1)C(=O)O (centres unmarked) [Compound G] | 4 (≈ 8.16 µM) |  | 
3 | NC(CCOc1ccc(C(=NO)C(=O)NC2CN(C(C(=O)O)c3ccc(O)cc3)C2=O)cc1)C(=O)O (centres unmarked) [Compound C, 2-[3-[2-{4-(3-amino-3-carboxypropoxy)phenyl}-2-hydroxyiminoacetamido]-2-oxo-1-azetidinyl]-2-(4-hydroxyphenyl)acetic acid] | 2.5 (≈ 5 µM) |  | 
4 | NC(CCOc1ccc(C(=NO)C(=O)NC2CN(C(C(=O)O)c3ccccc3)C2=O)cc1)C(=O)O (centres unmarked) [Compound B, 2-[3-[2-{4-(3-amino-3-carboxypropoxy)phenyl}-2-hydroxyiminoacetamido]-2-oxo-1-azetidinyl]-2-phenylacetic acid] | 4 (≈ 8.26 µM) |  | 

Continued, in another order:

Row | MIC (Pseudomonas aeruginosa) [µg/mL] | MIC (Staphylococcus aureus) [µg/mL] | Compound | other results
5 | 60 (≈ 168 µM) |  | O=C(NC1CN(C(C(=O)O)c2ccco2)C1=O)C(=NO)c1ccccc1 (centres unmarked) [Compound H, 2-[3-(2-phenyl-2-hydroxyiminoacetamido)-2-oxo-1-azetidinyl]-2-(2-furyl)acetic acid] | 
6 |  | 60 (≈ 144 µM) | O=C(NC1CN(C(C(=O)O)c2cccc3ccccc23)C1=O)C(=NO)c1ccccc1 (centres unmarked) [Compound E, 2-[3-(2-phenyl-2-hydroxyiminoacetamido)-2-oxo-1-azetidinyl]-2-(1-naphthyl)acetic acid] | 
7 |  | 250 (≈ 605 µM) | O=C(NC1CN(C(CSc2ccccc2)C(=O)O)C1=O)C(=NO)c1ccccc1 (centres unmarked) [Compound D, 2-[3-(2-phenyl-2-hydroxyiminoacetamido)-2-oxo-1-azetidinyl]-3-phenylthiopropionic acid] | 
8 |  | 250 (≈ 629 µM) | O=C(NC1CN(C(Cc2ccc(O)cc2)C(=O)O)C1=O)C(=NO)c1ccccc1 (centres unmarked) [Compound F, 2-[3-(2-phenyl-2-hydroxyiminoacetamido)-2-oxo-1-azetidinyl]-3-(4-hydroxyphenyl)propionic acid] | 
